Earlier results, collected in US20100317636A1, “REDUCING THE RISK OF CHRONIC LUNG DISEASE IN INFANTS” (China Medical University, a Taiwan corporation, priority 2006, published 2010).

How the values were obtained:
[1] = Ryrfeldt et al. (1982)

Question: For `CCCC1O[C@@H]2C[C@H]3[C@@H]4CCC5=CC(=O)C=C[C@]5(C)[C@H]4[C@@H](O)C[C@]3(C)[C@]2(C(=O)CO)O1` (stereo partly drawn) [Budesonide, 16 alpha, 17 alpha-(22R,S)-propylmethylenedioxypregna-1,4-diene-11 beta, 21-diol-3,20-dione], which solubility in chloroform (chloroform) is on record?
Answer: freely soluble

Question: And the solubility in ethanol (ethanol)?
Answer: sparingly soluble

Question: What about the solubility in heptane (heptane) of the same compound?
Answer: practically insoluble

Question: What about the solubility in water (water) of the same compound?
Answer: practically insoluble

Question: And the “degradation in the liver” value [1]?
Answer: rapidly degraded
